Results as given in ChEMBL document CHEMBL1201862, “PubChem BioAssay data set” (2004).
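Test compounds were applied to cells in 96-well plates for 48 hours at 5 doses. GI50 is the concentration that inhibits growth by half.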 Active and inactive are the calls of the source. Rule as the data show it: active = GI50 up to about 1.1 µM and inactive = higher.

What was measured:
Assay in all cases: DTP human tumour cell line panel, 48 h
[1] = test system: HT-29
[2] = test system: NCI-H522
[3] = test system: Malme-3M
[4] = test system: BT-549
[5] = test system: HOP-62
[6] = test system: SK-OV-3
[7] = test system: HCT-15
[8] = test system: IGROV-1
[9] = test system: MDA-MB-435
[10] = test system: A549
[11] = test system: Hs-578T
[12] = test system: KM12
[13] = test system: NCI-H226
[14] = test system: CAKI-1
[15] = test system: SK-MEL-28
[16] = test system: NCI/ADR-RES
[17] = test system: PC-3
[18] = test system: UACC-257
[19] = test system: EKVX
[20] = test system: HL-60

For `Fc1cccc(F)c1C(Nc1nncs1)Nc1nncs1`, the GI50 [1] was 47.2 µM (inactive), the GI50 [2] was > 100 µM (inactive) and the GI50 [3] was > 100 µM (inactive). For the same compound, the GI50 [4] was > 100 µM (inactive), the GI50 [5] was > 100 µM (inactive) and the GI50 [6] was > 100 µM (inactive). For the same compound, the GI50 [7] was 91.2 µM, the GI50 [8] was > 100 µM (inactive) and the GI50 [9] was 51.3 µM (inactive). For the same compound, the GI50 [10] was > 100 µM (inactive), the GI50 [11] was > 100 µM (inactive) and the GI50 [12] was > 100 µM (inactive). For the same compound, the GI50 [13] was > 100 µM (inactive), the GI50 [14] was > 100 µM (inactive) and the GI50 [15] was > 100 µM (inactive). For the same compound, the GI50 [16] was > 100 µM (inactive), the GI50 [17] was > 100 µM (inactive) and the GI50 [18] was > 100 µM (inactive).
For `CC(=O)O[C@@H]1[C@H]2[C@@H](OC(=O)c3ccccc3)[C@@H](C)C[C@]2(O)[C@H](OC(C)=O)[C@@]2(C)[C@@H]3CC(C)(C)C(=O)[C@]3(OC(C)=O)C[C@@]12C`, the GI50 [2] was > 25 µM (inactive), the GI50 [4] was > 25 µM (inactive) and the GI50 [5] was 10.9 µM (inactive). The GI50 [6] was > 25 µM (inactive), the GI50 [7] was greater than 25 µM and the GI50 [8] was > 25 µM (inactive). For the same compound, the GI50 [9] was 13.8 µM (inactive), the GI50 [11] was 9.53 µM (inactive) and the GI50 [12] was > 25 µM (inactive). The GI50 [19] was > 25 µM (inactive), the GI50 [13] was > 25 µM (inactive) and the GI50 [14] was 13.4 µM (inactive). The GI50 [16] was > 25 µM (inactive), the GI50 [20] was 1.35 µM (inactive) and the GI50 [17] was 17.7 µM (inactive). The GI50 [18] was > 25 µM (inactive).
For `CCOC(=O)CCc1cccc2c1oc1c(CCNC(=O)OCC3c4ccccc4-c4ccccc43)cccc12`, the GI50 [2] was 37.9 µM (inactive), the GI50 [3] was 18.1 µM (inactive) and the GI50 [4] was 22.5 µM (inactive). For the same compound, the GI50 [5] was 16.2 µM (inactive), the GI50 [6] was 49 µM (inactive) and the GI50 [7] was greater than 100 µM. For the same compound, the GI50 [8] was 21.3 µM (inactive), the GI50 [9] was > 100 µM (inactive) and the GI50 [10] was > 100 µM (inactive). For the same compound, the GI50 [11] was 4.17 µM (inactive), the GI50 [12] was > 100 µM (inactive) and the GI50 [19] was > 100 µM (inactive). The GI50 [13] was 86.7 µM (inactive), the GI50 [14] was 12.9 µM (inactive) and the GI50 [15] was > 100 µM (inactive). The GI50 [16] was 58.6 µM (inactive), the GI50 [20] was > 100 µM (inactive) and the GI50 [17] was 35.2 µM (inactive). For the same compound, the GI50 [18] was 41.9 µM (inactive).
In the case of `O=c1[nH]nc(Cc2ccccc2)n1Nc1ccccc1`, the GI50 [1] is reported as > 100 µM (inactive), the GI50 [2] is reported as > 100 µM (inactive) and the GI50 [3] is reported as > 100 µM (inactive). For the same compound, the GI50 [4] was > 100 µM (inactive), the GI50 [5] was > 100 µM (inactive) and the GI50 [7] was greater than 100 µM. The GI50 [8] was > 100 µM (inactive), the GI50 [9] was > 100 µM (inactive) and the GI50 [10] was > 100 µM (inactive). For the same compound, the GI50 [11] was > 100 µM (inactive), the GI50 [12] was > 100 µM (inactive) and the GI50 [19] was > 100 µM (inactive). For the same compound, the GI50 [13] was > 100 µM (inactive), the GI50 [14] was 46.3 µM (inactive) and the GI50 [15] was > 100 µM (inactive). The GI50 [16] was > 100 µM (inactive), the GI50 [20] was > 100 µM (inactive) and the GI50 [17] was > 100 µM (inactive). For the same compound, the GI50 [18] was > 100 µM (inactive).
With `O=C1c2cc([N+](=O)[O-])cnc2S(=O)(=O)N1c1ccc(Oc2ccccc2)cc1` the GI50 [2] was > 100 µM (inactive), the GI50 [3] was > 100 µM (inactive) and the GI50 [4] was > 100 µM (inactive). The GI50 [5] was > 100 µM (inactive), the GI50 [6] was > 100 µM (inactive) and the GI50 [7] was greater than 100 µM. The GI50 [8] was > 100 µM (inactive), the GI50 [9] was > 100 µM (inactive) and the GI50 [10] was > 100 µM (inactive). For the same compound, the GI50 [11] was > 100 µM (inactive), the GI50 [12] was > 100 µM (inactive) and the GI50 [19] was > 100 µM (inactive). The GI50 [13] was > 100 µM (inactive), the GI50 [15] was > 100 µM (inactive) and the GI50 [16] was > 100 µM (inactive). For the same compound, the GI50 [20] was > 100 µM (inactive) and the GI50 [17] was > 100 µM (inactive).
For `O=C1CC(=O)NC(NN2C(=O)/C(=C/c3ccccc3)N=C2c2ccccc2)=N1`, the GI50 [1] was > 100 µM (inactive), the GI50 [2] was > 100 µM (inactive) and the GI50 [3] was > 100 µM (inactive). The GI50 [4] was 26.6 µM (inactive), the GI50 [5] was > 100 µM (inactive) and the GI50 [6] was > 100 µM (inactive). For the same compound, the GI50 [7] was greater than 100 µM, the GI50 [8] was > 100 µM (inactive) and the GI50 [9] was > 100 µM (inactive). The GI50 [10] was > 100 µM (inactive), the GI50 [11] was > 100 µM (inactive) and the GI50 [12] was > 100 µM (inactive). For the same compound, the GI50 [13] was > 100 µM (inactive), the GI50 [14] was > 100 µM (inactive) and the GI50 [15] was > 100 µM (inactive). For the same compound, the GI50 [16] was > 100 µM (inactive), the GI50 [17] was > 100 µM (inactive) and the GI50 [18] was > 100 µM (inactive).
In the case of `O=C(C(=O)n1ccc2ccccc21)n1ccc2ccccc21`, the GI50 [1] is reported as > 100 µM (inactive), the GI50 [2] is reported as 49.2 µM (inactive) and the GI50 [3] is reported as > 100 µM (inactive). For the same compound, the GI50 [4] was > 100 µM (inactive), the GI50 [5] was 99.3 µM (inactive) and the GI50 [6] was 48.3 µM (inactive). The GI50 [7] was greater than 100 µM, the GI50 [8] was 2.12 µM (inactive) and the GI50 [9] was > 100 µM (inactive). For the same compound, the GI50 [10] was 83.2 µM (inactive), the GI50 [11] was 27.5 µM (inactive) and the GI50 [19] was > 100 µM (inactive). For the same compound, the GI50 [13] was > 100 µM (inactive), the GI50 [14] was > 100 µM (inactive) and the GI50 [15] was > 100 µM (inactive). For the same compound, the GI50 [16] was > 100 µM (inactive), the GI50 [17] was > 100 µM (inactive) and the GI50 [18] was > 100 µM (inactive).
In the case of `COc1cc(S(=O)(=O)Nc2nc(-c3ccc(N4C(=O)/C(=C/c5ccccc5)N=C4c4ccccc4)cc3)cs2)ccc1Cl`, the GI50 [1] is reported as 78.3 µM (inactive), the GI50 [2] is reported as 35.3 µM (inactive) and the GI50 [3] is reported as 30.8 µM (inactive). The GI50 [4] was 38.5 µM (inactive), the GI50 [5] was 29 µM (inactive) and the GI50 [6] was > 100 µM (inactive). The GI50 [7] was greater than 100 µM, the GI50 [8] was 44.2 µM (inactive) and the GI50 [9] was 46.9 µM (inactive). The GI50 [10] was > 100 µM (inactive), the GI50 [11] was 21 µM (inactive) and the GI50 [12] was 50.6 µM (inactive). The GI50 [13] was 62.5 µM (inactive), the GI50 [14] was > 100 µM (inactive) and the GI50 [15] was 54.7 µM (inactive). The GI50 [16] was > 100 µM (inactive), the GI50 [17] was 36.6 µM (inactive) and the GI50 [18] was 55.2 µM (inactive).
